Measurements reported in ChEMBL document CHEMBL1201862, “PubChem BioAssay data set” (2004).
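Values below derive from 48-hour exposures of cells grown in 96-well plates, with endpoints linearly interpolated between the two concentrations bracketing the appropriate inhibition level. GI50 is the concentration that inhibits growth by half.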 Active and inactive are the calls of the source. Rule as the data show it: active = GI50 up to about 1.1 µM and inactive = higher.

Experiments:
Experiment in all cases: NCI-60 cell line screen, 48 h
786-0 = test system: 786-0
A498 = test system: A498
A549 = test system: A549
ACHN = test system: ACHN
BT-549 = test system: BT-549
CAKI-1 = test system: CAKI-1
CCRF-CEM = test system: CCRF-CEM
COLO 205 = test system: COLO 205
DU-145 = test system: DU-145
EKVX = test system: EKVX
HCC 2998 = test system: HCC 2998
HCT-116 = test system: HCT-116
HCT-15 = test system: HCT-15
HL-60 = test system: HL-60
HOP-62 = test system: HOP-62
HT-29 = test system: HT-29
Hs-578T = test system: Hs-578T
IGROV-1 = test system: IGROV-1
K562 = test system: K562
KM12 = test system: KM12
LOX IMVI = test system: LOX IMVI
M14 = test system: M14
MCF7 = test system: MCF7
MDA-MB-231 = test system: MDA-MB-231
MDA-MB-435 = test system: MDA-MB-435
MDA-N = test system: MDA-N
MOLT-4 = test system: MOLT-4
Malme-3M = test system: Malme-3M
NCI-H226 = test system: NCI-H226
NCI-H23 = test system: NCI-H23
NCI-H460 = test system: NCI-H460
NCI-H522 = test system: NCI-H522
NCI/ADR-RES = test system: NCI/ADR-RES
OVCAR-3 = test system: OVCAR-3
OVCAR-4 = test system: OVCAR-4
OVCAR-5 = test system: OVCAR-5
OVCAR-8 = test system: OVCAR-8
PC-3 = test system: PC-3
RXF 393 = test system: RXF 393
SF-268 = test system: SF-268
SF-295 = test system: SF-295
SF-539 = test system: SF-539
SK-MEL-28 = test system: SK-MEL-28
SK-MEL-5 = test system: SK-MEL-5
SK-OV-3 = test system: SK-OV-3
SN12C = test system: SN12C
SNB-19 = test system: SNB-19
SNB-75 = test system: SNB-75
SW-620 = test system: SW-620
T47D = test system: T47D
TK-10 = test system: TK-10
U-251 = test system: U-251
UACC-257 = test system: UACC-257
UACC-62 = test system: UACC-62
UO-31 = test system: UO-31
RPMI-8226 = test system: RPMI-8226
SK-MEL-2 = test system: SK-MEL-2

Which results are given for `O=[N+]([O-])C(Cl)C(Cl)C(Cl)=C(Cl)Cl` (configuration not stated)?
GI50 (786-0): 7.85 µM (inactive); GI50 (A498): > 77.3 µM (inactive); GI50 (A549): > 91.8 µM (inactive); GI50 (ACHN): 16.4 µM (inactive); GI50 (BT-549): 22.6 µM (inactive); GI50 (CAKI-1): 17.6 µM (inactive); GI50 (CCRF-CEM): 23.7 µM (inactive); GI50 (COLO 205): 17.5 µM (inactive); GI50 (DU-145): 88.7 µM (inactive); GI50 (EKVX): > 100 µM (inactive); GI50 (HCC 2998): > 40.9 µM (inactive); GI50 (HCT-116): 19.4 µM (inactive); GI50 (HCT-15): 18.7 µM; GI50 (HL-60): 10.4 µM (inactive); GI50 (HOP-62): 41.2 µM (inactive); GI50 (HT-29): 17.6 µM (inactive); GI50 (Hs-578T): 25.1 µM (inactive); GI50 (IGROV-1): 13.3 µM (inactive); GI50 (K562): 29.8 µM (inactive); GI50 (KM12): > 66.7 µM (inactive); GI50 (LOX IMVI): 14.4 µM (inactive); GI50 (M14): 13.8 µM (inactive); GI50 (MCF7): 13.8 µM (inactive); GI50 (MDA-MB-231): 16.2 µM (inactive); GI50 (MDA-MB-435): 23.7 µM (inactive); GI50 (MDA-N): 19.1 µM (inactive); GI50 (MOLT-4): 19.1 µM (inactive); GI50 (Malme-3M): 14.8 µM (inactive); GI50 (NCI-H226): > 100 µM (inactive); GI50 (NCI-H23): 23.8 µM (inactive); GI50 (NCI-H460): 49.1 µM (inactive); GI50 (NCI-H522): 21.4 µM (inactive); GI50 (NCI/ADR-RES): 40.7 µM (inactive); GI50 (OVCAR-3): 26 µM (inactive); GI50 (OVCAR-4): 16.7 µM (inactive); GI50 (OVCAR-5): > 50.2 µM (inactive); GI50 (OVCAR-8): 30.9 µM (inactive); GI50 (PC-3): > 41.3 µM (inactive); GI50 (RXF 393): 18.5 µM (inactive); GI50 (SF-268): > 45.8 µM (inactive); GI50 (SF-295): 60 µM (inactive); GI50 (SF-539): 38.5 µM (inactive); GI50 (SK-MEL-28): 18.5 µM (inactive); GI50 (SK-MEL-5): 15 µM (inactive); GI50 (SK-OV-3): 19.5 µM (inactive); GI50 (SN12C): 33.7 µM (inactive); GI50 (SNB-19): 54 µM (inactive); GI50 (SNB-75): 32.7 µM (inactive); GI50 (SW-620): 18 µM (inactive); GI50 (T47D): 0.547 µM (active); GI50 (TK-10): 19.4 µM (inactive); GI50 (U-251): > 83.6 µM (inactive); GI50 (UACC-257): 22.1 µM (inactive); GI50 (UACC-62): 16.6 µM (inactive); GI50 (UO-31): > 31.6 µM (inactive)

What does the source list for `COc1nc2ccc(CNc3ccc(C(=O)O)cc3)cc2nc1OC`?
GI50 (786-0): > 10 µM (inactive); GI50 (A498): > 10 µM (inactive); GI50 (A549): > 10 µM (inactive); GI50 (ACHN): > 10 µM (inactive); GI50 (BT-549): > 10 µM (inactive); GI50 (CAKI-1): > 10 µM (inactive); GI50 (CCRF-CEM): > 10 µM (inactive); GI50 (COLO 205): > 10 µM (inactive); GI50 (DU-145): > 10 µM (inactive); GI50 (EKVX): > 10 µM (inactive); GI50 (HCC 2998): > 10 µM (inactive); GI50 (HCT-116): > 10 µM (inactive); GI50 (HCT-15): > 10 µM; GI50 (HL-60): > 10 µM (inactive); GI50 (HOP-62): > 10 µM (inactive); GI50 (HT-29): > 10 µM (inactive); GI50 (Hs-578T): > 10 µM (inactive); GI50 (IGROV-1): > 10 µM (inactive); GI50 (K562): > 10 µM (inactive); GI50 (KM12): > 10 µM (inactive); GI50 (LOX IMVI): > 10 µM (inactive); GI50 (M14): > 10 µM (inactive); GI50 (MCF7): > 10 µM (inactive); GI50 (MDA-MB-231): > 10 µM (inactive); GI50 (MDA-MB-435): > 10 µM (inactive); GI50 (MDA-N): > 10 µM (inactive); GI50 (MOLT-4): > 10 µM (inactive); GI50 (Malme-3M): > 10 µM (inactive); GI50 (NCI-H226): > 10 µM (inactive); GI50 (NCI-H23): > 10 µM (inactive); GI50 (NCI-H460): > 10 µM (inactive); GI50 (NCI-H522): > 10 µM (inactive); GI50 (NCI/ADR-RES): > 10 µM (inactive); GI50 (OVCAR-3): > 10 µM (inactive); GI50 (OVCAR-4): > 10 µM (inactive); GI50 (OVCAR-5): > 10 µM (inactive); GI50 (OVCAR-8): > 10 µM (inactive); GI50 (PC-3): > 10 µM (inactive); GI50 (RPMI-8226): > 10 µM (inactive); GI50 (RXF 393): > 10 µM (inactive); GI50 (SF-268): > 10 µM (inactive); GI50 (SF-295): > 10 µM (inactive); GI50 (SF-539): > 10 µM (inactive); GI50 (SK-MEL-28): > 10 µM (inactive); GI50 (SK-MEL-2): > 10 µM (inactive); GI50 (SK-MEL-5): > 10 µM (inactive); GI50 (SK-OV-3): > 10 µM (inactive); GI50 (SN12C): > 10 µM (inactive); GI50 (SNB-19): > 10 µM (inactive); GI50 (SNB-75): > 10 µM (inactive); GI50 (SW-620): > 10 µM (inactive); GI50 (T47D): > 10 µM (inactive); GI50 (TK-10): > 10 µM (inactive); GI50 (U-251): > 10 µM (inactive); GI50 (UACC-257): > 10 µM (inactive); GI50 (UACC-62): > 10 µM (inactive)

What does the source list for `O=C1NC(=S)N/C1=C\c1ccc(Cl)cc1`?
GI50 (786-0): > 100 µM (inactive); GI50 (A549): 93.1 µM (inactive); GI50 (BT-549): > 100 µM (inactive); GI50 (CAKI-1): > 100 µM (inactive); GI50 (CCRF-CEM): 54.2 µM (inactive); GI50 (COLO 205): 80.5 µM (inactive); GI50 (DU-145): 99.8 µM (inactive); GI50 (EKVX): 33.6 µM (inactive); GI50 (HCC 2998): > 100 µM (inactive); GI50 (HCT-116): > 100 µM (inactive); GI50 (HCT-15): > 100 µM; GI50 (HOP-62): > 100 µM (inactive); GI50 (HT-29): > 100 µM (inactive); GI50 (Hs-578T): 50.4 µM (inactive); GI50 (IGROV-1): > 100 µM (inactive); GI50 (KM12): 89.7 µM (inactive); GI50 (LOX IMVI): > 100 µM (inactive); GI50 (M14): > 100 µM (inactive); GI50 (MCF7): > 100 µM (inactive); GI50 (MDA-MB-231): > 100 µM (inactive); GI50 (MDA-MB-435): > 100 µM (inactive); GI50 (MDA-N): > 100 µM (inactive); GI50 (MOLT-4): 80.2 µM (inactive); GI50 (Malme-3M): > 100 µM (inactive); GI50 (NCI-H226): > 100 µM (inactive); GI50 (NCI-H23): > 100 µM (inactive); GI50 (NCI-H522): > 100 µM (inactive); GI50 (NCI/ADR-RES): > 100 µM (inactive); GI50 (OVCAR-3): > 100 µM (inactive); GI50 (OVCAR-4): 39.2 µM (inactive); GI50 (OVCAR-5): > 100 µM (inactive); GI50 (OVCAR-8): > 100 µM (inactive); GI50 (PC-3): > 100 µM (inactive); GI50 (RPMI-8226): 77.3 µM (inactive); GI50 (RXF 393): > 100 µM (inactive); GI50 (SF-268): > 100 µM (inactive); GI50 (SF-295): > 100 µM (inactive); GI50 (SF-539): > 100 µM (inactive); GI50 (SK-MEL-28): > 100 µM (inactive); GI50 (SK-MEL-2): > 100 µM (inactive); GI50 (SK-MEL-5): 41.8 µM (inactive); GI50 (SK-OV-3): > 100 µM (inactive); GI50 (SN12C): > 100 µM (inactive); GI50 (SNB-19): > 100 µM (inactive); GI50 (SNB-75): > 100 µM (inactive); GI50 (SW-620): > 100 µM (inactive); GI50 (T47D): 42.5 µM (inactive); GI50 (TK-10): > 100 µM (inactive); GI50 (U-251): > 100 µM (inactive); GI50 (UACC-62): 46.3 µM (inactive); GI50 (UO-31): 53.7 µM (inactive)
